From patent publication US20160243112A1, “TREATMENTS FOR ALZHEIMER'S RELATED DISEASES AND DISORDERS” (Alkermes, Inc., priority 2015, published 2016)
Where a name gives a salt, the structure may show the parent alone.

Columns and labels:
[1] = molecular target: T1, cloned human NMDA receptor (NR1/NR2A) channel (Homo sapiens, UniProt Q05586+Q12879); experiment: FLIPR Ca++ flux assay in NR1/NR2A expressing HEK cells; assay type: cell-based
T1 construct: expressed in transfected cells; host or cells: HEK293
Description: (§1) The NMDA receptor is an ionotropic glutamate receptor that forms a cation-selective channel. Test articles were assessed for their ability to inhibit calcium flux produced by a positive control agonist (100 μM Glutamic acid+20 μM Glycine) in cloned human NMDA receptor (NR1/NR2A) channel (encoded by the GRIN1 and GRIN2A genes) expressing HEK293 cells. A Fluo-8 calcium kit and a Fluorescence Imaging Plate Reader ([…]™) instrument was used to measure calcium flux. The potential antagonist effect of each test article was measured at eight concentrations (0.1, 0.3, 1, 3, 10, 30, 100, 300 μM; n=4 per concentration) after activating NR1/NR2A channel with the positive control agonist (100 μM Glutamic acid+20 μM Glycine).
as §1

[2] = tested on: olfactory bulbectomized (OBX) rat; experiment: Efficacy study in an animal model of anxiety: marble burying in the OBX rat; assay type: in vivo; details: OBX rats; 10 mg/kg single s.c. injection 30 min before 20 min test
Description: Rodents will also bury non-aversive unconditioned objects, such as food pellets and glass marbles; an effect reversible by compounds that have anxiolytic efficacy.
(§2) The study design included 4 treatment groups. Rats were assigned to their respective treatments by stratifying into groups based on body weight and arena. The experiment was carried out on a single day.
(§3) Thirty-two male Sprague Dawley rats (Charles River, Raleigh, N.C.) were used for this study. Rats were single housed and weighed 200-225 g upon receipt. All rats were maintained on a 12 h light-12 h dark cycle with free access to food and water. Husbandry was conducted in accordance with the 2011 Guide for the Care and Use of Laboratory Animals (NRC, 2011).
(§4) Subcutaneous doses were administered via flank injection at a dose volume of 1 mL/kg 30 minutes before behavioral testing. Dose volumes were adjusted for the weight of the animal on the day of the experiment.
(§5) OBX rats and their weight-matched non-surgery controls were allowed to acclimate/recover from the surgical procedure for at least 4 weeks to permit the onset of the behavioral deficit. Rats were handled periodically throughout this acclimation period to prevent excessive aggression. […]
Marbles were considered “buried” if more than ⅔ surface was not visible. The number of uncovered/buried marbles was recorded and photographed by experimenter blind to drug treatment. […]

[3] = tested on: olfactory bulbectomized (OBX) rat; experiment: Efficacy study in an animal model of agitation: open field locomotor activity in the OBX rat; assay type: in vivo; details: OBX rats; single s.c. injection 30 min before test; Compound-1 10 and 30 mg/kg
Description: The objective of this study is to assess the efficacy of Compound-1 in an animal model of agitation: the olfactory bulbectomized (OBX) rat.
as §2
as §3, with “Forty-four” for “Thirty-two”
as §4, §5
The following parameters were assayed: • 1. […] The behavior was recorded and analyzed by an automated tracking system (Med Associates). […]

Sprague Dawley rat = experiment: Open field test of locomotor activity in non-olfactory bulbectomized Sprague Dawley rats; assay type: in vivo; details: 10 mg/kg s.c. 30 min before 30 min test, vs vehicle
Text: Significant changes in locomotor activity may indicate an abnormal response to a drug (e.g., psychomotor retardation, agitation or behavioral sensitization). The Open field test is a commonly used qualitative and quantitative measure of general locomotor activity and willingness to explore in rodents. The objective of this study is to evaluate the effect of Compound-1 on locomotor activity in the (non-olfactory bulbectomized) rat. This study serves as a control experiment for the agitation and anxiety assays described above.
The study design included 2 treatment groups. Rats were randomized into their respective treatments. The experiment was carried out on a single day.
as §3, with “Sixteen” for “Thirty-two”
as §4
Rats were allowed to acclimate to the facility for 1 week before behavioral testing. Rats were placed in the Open field arena 30 minutes post-drug administration for a 30 min test. This experiment was run under dim light and low white noise conditions.
The following parameters were assayed:
1. Distance travelled (cm)
3. Stereotypy counts (arbitrary unit)
4. Number of rears (exploratory behavior)
5. Average velocity (cm/s)
The behavior was recorded and analyzed by an automated tracking system (Med Associates). GraphPad Prism 6.0 was used to prepare graphs and to perform data analysis including one-way ANOVA or t-test analysis of locomotor activity where appropriate.

[4] = Repeat dose general toxicology studies of up to six weeks; assay type: in vivo; details: rats, daily oral gavage up to six weeks
Text: NMDA antagonists are associated with a wide range of serious toxicities, including neurodegeneration. However, the therapeutic index of an NMDA antagonist can vary widely and is correlated with a property referred to as trapping at the drug binding site within the NMDA receptor channel. Higher trapping agents show increased toxicity relative to lower trapping agents and a reduced therapeutic index. Compounds of Formula I, or a Compound of Table 1, preferably Compound-1, have been evaluated in repeat dose general toxicology studies of up to six weeks in duration in both rats and dogs. In both species, Compounds of Formula I, or a Compound of Table 1, preferably Compound-1, were given daily by oral gavage at doses producing plasma concentrations of the drug that would exceed the expected human therapeutic exposures by at least 30-fold. […] This observation is consistent with the concept of the low trapping nature of Compounds of Formula I, or a Compound of Table 1, preferably Compound-1, and an improved therapeutic index over other NMDA antagonists characterized as high trapping agents.

[5] = molecular target: T2, PCP binding site of NMDA receptors (Rattus norvegicus, UniProt P35439); experiment: CEREP NMDA PCP site binding study (PCP antagonist radioligand assay #0124)
T2 construct: NMDA receptors in rat cerebral cortex cells; tissue CEREP #0124; host or cells: rat cerebral cortex
Description: The specific ligand binding to the receptors is defined as the difference between the total binding and the nonspecific binding determined in the presence of an excess of unlabelled ligand. […] The inhibition constants (Ki) were calculated using the Cheng Prusoff equation (Ki=IC50/(1+(L/KD)), where L=concentration of radioligand in the assay, and KD=affinity of the radioligand for the receptor).

T1 sequence (Q12879 23-1464, other chains not shown): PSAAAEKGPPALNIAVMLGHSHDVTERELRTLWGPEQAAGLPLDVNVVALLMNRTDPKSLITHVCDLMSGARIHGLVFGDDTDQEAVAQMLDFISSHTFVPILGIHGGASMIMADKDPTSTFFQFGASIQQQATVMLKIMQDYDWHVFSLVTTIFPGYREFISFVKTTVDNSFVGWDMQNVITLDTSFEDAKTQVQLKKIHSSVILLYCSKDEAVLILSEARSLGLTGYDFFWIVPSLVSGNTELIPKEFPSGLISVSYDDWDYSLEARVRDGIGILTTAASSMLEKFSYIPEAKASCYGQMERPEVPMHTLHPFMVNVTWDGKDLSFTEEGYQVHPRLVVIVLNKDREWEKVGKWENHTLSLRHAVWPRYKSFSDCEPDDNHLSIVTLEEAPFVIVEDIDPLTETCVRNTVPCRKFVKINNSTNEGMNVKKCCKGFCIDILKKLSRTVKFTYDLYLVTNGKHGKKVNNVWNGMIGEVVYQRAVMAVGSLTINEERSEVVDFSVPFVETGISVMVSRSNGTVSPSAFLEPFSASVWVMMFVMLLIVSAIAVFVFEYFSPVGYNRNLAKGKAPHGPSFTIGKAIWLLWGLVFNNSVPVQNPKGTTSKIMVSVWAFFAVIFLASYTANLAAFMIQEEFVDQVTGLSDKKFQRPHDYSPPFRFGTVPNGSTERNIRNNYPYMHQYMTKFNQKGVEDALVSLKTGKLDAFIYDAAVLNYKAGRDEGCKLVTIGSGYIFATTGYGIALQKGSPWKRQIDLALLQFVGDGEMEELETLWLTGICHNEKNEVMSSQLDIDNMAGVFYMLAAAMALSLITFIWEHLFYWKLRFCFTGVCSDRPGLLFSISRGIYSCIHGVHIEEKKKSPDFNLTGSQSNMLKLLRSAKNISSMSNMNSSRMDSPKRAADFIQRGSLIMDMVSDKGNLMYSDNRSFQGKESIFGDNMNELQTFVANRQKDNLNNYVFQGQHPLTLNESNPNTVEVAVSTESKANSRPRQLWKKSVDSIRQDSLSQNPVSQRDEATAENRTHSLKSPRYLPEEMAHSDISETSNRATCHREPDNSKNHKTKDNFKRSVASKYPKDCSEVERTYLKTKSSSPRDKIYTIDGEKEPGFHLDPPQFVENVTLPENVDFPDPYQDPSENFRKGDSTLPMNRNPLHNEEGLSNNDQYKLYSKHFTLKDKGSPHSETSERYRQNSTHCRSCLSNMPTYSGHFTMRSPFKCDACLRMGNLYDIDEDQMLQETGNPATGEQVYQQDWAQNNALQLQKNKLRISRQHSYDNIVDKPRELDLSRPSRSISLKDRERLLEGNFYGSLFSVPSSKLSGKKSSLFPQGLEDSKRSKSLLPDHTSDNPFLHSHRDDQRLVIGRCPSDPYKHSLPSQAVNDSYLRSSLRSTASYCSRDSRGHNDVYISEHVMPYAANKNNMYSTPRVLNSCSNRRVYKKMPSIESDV

Q: For `COc1ccc2c(c1)[C@]13CCCC[C@@H]1[C@H](C2)N(C)CC3` [Dextromethorphan (DMX), Dextromethorphan, reference compound], which IC50 [1] is on record?
A: The IC50 was 107 µM.

Q: What about the “burying response (marbles buried)” value [2] of the same molecule?
A: Its value is “blocked this burying response”.

Q: And the “locomotor response (distance travelled) in open field” value [3]?
A: The value was “blocks the locomotor response”.

Q: For `CN1CC[C@@]23CCCCC2[C@@H]1Cc1ccc(-c2nnc(C(F)(F)F)s2)cc13` (stereo partly shown), which IC50 [1] is on record?
A: Its IC50 is greater than 500 µM.

Q: Which IC50 [1] does the source give for `c1ccc(C2(N3CCCCC3)CCCCC2)cc1` [Phencyclidine (PCP), Phencyclidine, reference compound] here?
A: Its IC50 is 7.5 µM.

Q: With `Cc1nnc(-c2ccc3c(c2)[C@]24CCCCC2[C@H](C3)N(CCc2ccccc2)CC4)s1` (stereo partly shown) as the molecule, how does the IC50 [1] read?
A: Its IC50 is greater than 500 µM.

Q: Which IC50 [1] does the source give for `Cc1nnc(-c2ccc3c(c2)[C@]24CCCC[C@@H]2[C@H](C3)N(C)CC4)o1` here?
A: The IC50 was greater than 500 µM.

Q: Which IC50 [1] does the source give for `CN1CC[C@@]23CCCCC2[C@@H]1Cc1ccc(-c2nnc(C(C)(C)C)s2)cc13` (stereo partly shown) here?
A: Its IC50 is greater than 500 µM.

Q: For `O=C(O)c1ccc2c(c1)[C@]13CCCC[C@@H]1[C@H](C2)N(CCc1ccccc1)CC3`, which IC50 [1] is on record?
A: The IC50 was greater than 500 µM.

Q: Which IC50 [1] does the source give for `CN1CC[C@@]23CCCCC2[C@@H]1Cc1ccc(-c2cscn2)cc13` (stereo partly shown) here?
A: The IC50 was 50 µM.

Q: For `CN1CC[C@@]23CCCCC2[C@@H]1Cc1ccc(-c2nccs2)cc13` (stereo partly shown), which IC50 [1] is on record?
A: Its IC50 is 33 µM.

Q: Which IC50 [1] does the source give for `CN1CC[C@@]23CCCC[C@@H]2[C@@H]1Cc1ccc(-c2nncs2)cc13` [Compound-2, 2-((4bS,9S)-11-methyl-6,7,8,8a,9,10-hexahydro-5H-9,4b-(epiminoethano)phenanthren-3-yl)-1,3,4-thiadiazole hydrochloride] here?
A: The IC50 was 225 µM.

Q: With `CN1CC[C@@]23CCCC[C@@H]2[C@@H]1Cc1ccc(Br)cc13` as the molecule, how does the IC50 [1] read?
A: Its IC50 is 49 µM.

Q: Which IC50 [1] does the source give for `CN1CC[C@@]23CCCCC2[C@@H]1Cc1ccc(-c2nnc(N)s2)cc13` (stereo partly shown) here?
A: The IC50 was 35.5 µM.

Q: Which IC50 [1] does the source give for `CN1CC[C@@]23CCCCC2[C@@H]1Cc1ccc(-c2nnc(C(C)(C)O)s2)cc13` (stereo partly shown) here?
A: Its IC50 is greater than 500 µM.

Q: With `CN1CC[C@@]23CCCCC2[C@@H]1Cc1ccc(-c2nnc(CO)s2)cc13` (stereo partly shown) as the molecule, how does the IC50 [1] read?
A: Its IC50 is 47.5 µM.

Q: For `CN1CC[C@@]23CCCCC2[C@@H]1Cc1ccc(-c2ccsn2)cc13` (stereo partly shown), which IC50 [1] is on record?
A: Its IC50 is 15 µM.

Q: Which IC50 [1] does the source give for `CN1CC[C@@]23CCCC[C@@H]2[C@@H]1Cc1ccc(C(N)=O)cc13` [Compound-1] here?
A: The IC50 was 225 µM.

Q: And the “effect on average velocity” value (Sprague Dawley rat)?
A: Its value is “no effect”.

Q: And the “effect on jumping behavior” value (Sprague Dawley rat)?
A: The value was “no effect”.

Q: And the “effect on locomotor activity (distance travelled)” value (Sprague Dawley rat)?
A: The value was “no effect”.

Q: And the effect on rearing (Sprague Dawley rat)?
A: Its effect on rearing is “no effect”.

Q: And the effect on stereotypy (Sprague Dawley rat)?
A: The effect on stereotypy was “no effect”.

Q: What about the clinical changes ([4]; highest doses evaluated) of the same molecule?
A: Its clinical changes is “increased bone fractures and abnormalities in incisors”.

Q: What about the neurodegeneration ([4]; when clinical signs were present) of the same molecule?
A: The neurodegeneration was “no evidence of neurodegeneration”.

Q: What about the “burying response (marbles buried)” value [2] of the same molecule?
A: The value was “blocked this burying response”.

Q: And the “locomotor response (distance travelled) in open field” value [3]?
A: The value was “blocked this hyperlocomotor response”.

Q: What about the Ki [5] of the same molecule?
A: Its Ki is 7.4 µM.

Q: And the “mode of binding to the PCP binding site” value ([5]; rat cerebral cortex)?
A: The value was “binds competitively”.

Q: For `Cc1nnc(-c2ccc3c(c2)[C@]24CCCC[C@@H]2[C@H](C3)N(C)CC4)s1` [Compound-3, 2-methyl-5-((4bS,9S)-11-methyl-6,7,8,8a,9,10-hexahydro-5H-9,4b-(epiminoethano)phenanthren-3-yl)-1,3,4-thiadiazole hydrochloride], which IC50 [1] is on record?
A: The IC50 was 94 µM.

Q: For `CNC1(c2ccccc2Cl)CCCCC1=O` (stereo not shown) [Ketamine, reference compound], which IC50 [1] is on record?
A: The IC50 was 57.2 µM.
